Test results: publication PMC10732257 (Oncotarget, 2023)

Tests used:
MV-4-11 xenograft = assay: Anti-tumor efficacy in subcutaneous MV-4-11 xenograft model; format: in vivo, female BALB/c nude mice; settings: i.v.; GFH009 maleate 2.5, 5.0, 10.0 mg/kg QW or BIW; enitociclib 10.0 mg/kg QW; 3 weeks
Description: Figure 6 Anti-tumor efficacy of GFH009 in MV-4-11 xenograft model. MV-4-11 xenograft in female BALB/c nude mice were treated with GFH009 or enitociclib at the indicated doses (n = 8 mice per group). Results are expressed as mean ± SEM. ^* P < 0.05, ^**** P < 0.0001, two-way ANOVA with Dunnett’s multiple comparisons test analysis compared to Vehicle control group.
In vivo studies of tumor suppression were conducted in female BALB/c nude mice (Beijing Vital River Laboratory Animal Technology Co, Ltd., Changping, Beijing, China) bearing MV-4-11 xenografts (ATCC, Rockville, MD, USA). Each mouse was inoculated subcutaneously into the right dorsal-region with 5.0 × 10^6 cultured MV-4-11 cells in a total volume of 0.2 ml solution and allowed to develop xenograft tumors. Once tumor size had reached […], mice were divided into groups to receive 1 of 8 different treatment preparations dosed intravenously via the tail vein (Table 2). […] Enitociclib was administered as a 1.0 mg/mL solution in ultrapure water with 5% DMSO. Vehicle control was 50 mM PBS with no dissolved treatment drug.
(§1) Animals dosed BIW were given treatments on 2 consecutive days. Weights were recorded for each mouse every day and tumor volumes assessed 3 times a week. Total treatment administration occurred across 3 consecutive weeks.
Subcutaneous tumor volume (TV) was calculated as TV = (L × W^2)/2, where L was the length and W was the width of the tumor [11]. […] TGI was calculated as TGI (%) = (1 – avTi-0/ avCi-0)) × 100, where avTi-0 is the mean TV of the treatment group on a given day minus the mean TV of this treatment group on the day of group assignment, and avCi-0 is the mean TV of the vehicle control group on a given day minus the mean TV of the vehicle control group on the day of group assignment.
Tumor volume data was subjected to a base-10 logarithmic transformation and subsequent comparisons of TV across groups was made using two-way ANOVA (Dunnett’s multiple comparisons test). All plotting and statistical analyses were conducted using GraphPad Prism 6.00 (GraphPad Software).

[1] = Body weight change in MV-4-11 xenograft mice; format: in vivo, female BALB/c nude mice; settings: GFH009 maleate QW or BIW; enitociclib 10.0 mg/kg QW; i.v.
Description: Figure 7 Effect of GFH009 on body weight change in MV-4-11 xenografts. Body weight change of MV-4-11 xenograft (Figure 6) are expressed as mean ± SEM. ^* […], ^** P < 0.01, ^**** P < 0.0001, two-way ANOVA with Dunnett’s multiple comparisons test analysis compared to the vehicle-treated (control) group.
as §1
Relative change in body weight (RCBW) was determined as RCBW (%) = (Bwi – BW0)/BW0 × 100, where Bwi is body weight of a given mouse on a given day, and BW0 is initial body weight on the day they were assigned to a treatment group.

In the case of `COc1cc(F)ccc1-c1cc(Nc2cc(CS(C)(=N)=O)ccn2)ncc1F` (centres unmarked) [enitociclib, reference compound], the “Tumor growth (total volume) compared to the vehicle control” value (MV-4-11 xenograft) is reported as “inhibited tumor growth” and the “Body weight of the mice during the administration period” value [1] is reported as “decreased dramatically”.
